Test [1] concerns the target Calcium/calmodulin-dependent protein kinase type 1D (Homo sapiens) (UniProt Q8IU85). Put plainly: Inhibition of CAMK1D (unknown origin) assessed as residual activity at 100 nM by KINOMEscan analysis relative to control.
Test [2] concerns the target T1, Interleukin-1 receptor-associated kinase 4 (Homo sapiens) (UniProt Q9NWZ3).
T1 sequence (whole entry): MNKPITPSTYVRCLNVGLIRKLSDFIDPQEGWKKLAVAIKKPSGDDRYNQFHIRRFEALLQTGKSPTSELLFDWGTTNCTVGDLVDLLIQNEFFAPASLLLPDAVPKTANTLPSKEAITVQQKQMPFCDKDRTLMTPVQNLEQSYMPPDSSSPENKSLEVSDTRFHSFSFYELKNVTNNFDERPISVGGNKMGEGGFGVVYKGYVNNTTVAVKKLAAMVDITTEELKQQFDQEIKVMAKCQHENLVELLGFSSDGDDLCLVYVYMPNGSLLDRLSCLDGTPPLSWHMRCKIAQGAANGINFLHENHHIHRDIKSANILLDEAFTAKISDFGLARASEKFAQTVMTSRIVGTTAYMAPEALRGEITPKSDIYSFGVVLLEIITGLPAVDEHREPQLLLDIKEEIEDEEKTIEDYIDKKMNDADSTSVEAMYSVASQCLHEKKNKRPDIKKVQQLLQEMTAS
As to the kind of experiment: Inhibition of IRAK4 (unknown origin) assessed as residual activity at 100 nM by KINOMEscan analysis relative to control.

Test [3] deals with T2, Serine/threonine-protein kinase RIO3 (Homo sapiens) (UniProt O14730).
T2 sequence (whole entry): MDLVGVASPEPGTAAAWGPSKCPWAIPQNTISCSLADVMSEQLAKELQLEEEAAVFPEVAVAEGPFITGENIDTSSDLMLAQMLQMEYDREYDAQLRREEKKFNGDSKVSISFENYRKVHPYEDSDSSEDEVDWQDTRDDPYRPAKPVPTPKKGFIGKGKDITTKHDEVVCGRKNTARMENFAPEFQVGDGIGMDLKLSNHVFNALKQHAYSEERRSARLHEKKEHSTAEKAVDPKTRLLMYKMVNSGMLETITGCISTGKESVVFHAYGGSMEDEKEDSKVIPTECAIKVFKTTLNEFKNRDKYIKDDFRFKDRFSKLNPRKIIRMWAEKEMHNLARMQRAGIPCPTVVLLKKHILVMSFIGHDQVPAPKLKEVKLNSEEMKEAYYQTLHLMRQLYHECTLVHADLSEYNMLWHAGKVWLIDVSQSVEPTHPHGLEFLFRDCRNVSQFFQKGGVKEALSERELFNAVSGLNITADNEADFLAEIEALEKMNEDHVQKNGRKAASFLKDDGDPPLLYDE
Put plainly: Inhibition of RIOK3 (unknown origin) assessed as residual activity at 100 nM by KINOMEscan analysis relative to control.

Test [4] deals with Ribosomal protein S6 kinase alpha-3 (Homo sapiens) (UniProt P51812). As to the kind of experiment: Inhibition of C-terminal RSK2 kinetic domain 2 (unknown origin) assessed as residual activity at 100 nM by KINOMEscan analysis relative to control.
Chain of Ribosomal protein S6 kinase alpha-3 (Homo sapiens) (P51812 whole entry, the tested form may be a part): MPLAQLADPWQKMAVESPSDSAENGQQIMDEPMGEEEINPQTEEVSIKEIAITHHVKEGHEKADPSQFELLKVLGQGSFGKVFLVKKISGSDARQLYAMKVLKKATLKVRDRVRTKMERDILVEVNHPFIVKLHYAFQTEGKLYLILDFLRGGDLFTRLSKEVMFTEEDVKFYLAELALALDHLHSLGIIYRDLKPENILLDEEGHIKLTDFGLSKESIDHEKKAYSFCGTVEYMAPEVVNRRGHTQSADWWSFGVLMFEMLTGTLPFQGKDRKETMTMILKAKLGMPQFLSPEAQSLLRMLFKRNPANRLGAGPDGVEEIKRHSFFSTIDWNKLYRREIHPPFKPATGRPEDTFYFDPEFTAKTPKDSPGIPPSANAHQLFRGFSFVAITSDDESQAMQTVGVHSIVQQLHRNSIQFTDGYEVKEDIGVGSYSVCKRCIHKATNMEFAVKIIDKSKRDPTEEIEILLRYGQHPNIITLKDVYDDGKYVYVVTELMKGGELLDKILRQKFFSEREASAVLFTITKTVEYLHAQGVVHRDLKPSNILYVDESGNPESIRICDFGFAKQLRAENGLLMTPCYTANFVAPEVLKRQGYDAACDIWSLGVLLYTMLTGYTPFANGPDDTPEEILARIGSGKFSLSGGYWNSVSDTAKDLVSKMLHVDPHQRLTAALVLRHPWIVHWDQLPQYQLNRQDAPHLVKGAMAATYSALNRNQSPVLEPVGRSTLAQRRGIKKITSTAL
For test [5], the target named is Ribosomal protein S6 kinase alpha-6 (Homo sapiens) (UniProt Q9UK32). As to the kind of experiment: Inhibition of C-terminal RSK4 kinetic domain 2 (unknown origin) assessed as residual activity at 100 nM by KINOMEscan analysis relative to control.
Chain of Ribosomal protein S6 kinase alpha-6 (Homo sapiens) (Q9UK32 whole entry, the tested form may be a part): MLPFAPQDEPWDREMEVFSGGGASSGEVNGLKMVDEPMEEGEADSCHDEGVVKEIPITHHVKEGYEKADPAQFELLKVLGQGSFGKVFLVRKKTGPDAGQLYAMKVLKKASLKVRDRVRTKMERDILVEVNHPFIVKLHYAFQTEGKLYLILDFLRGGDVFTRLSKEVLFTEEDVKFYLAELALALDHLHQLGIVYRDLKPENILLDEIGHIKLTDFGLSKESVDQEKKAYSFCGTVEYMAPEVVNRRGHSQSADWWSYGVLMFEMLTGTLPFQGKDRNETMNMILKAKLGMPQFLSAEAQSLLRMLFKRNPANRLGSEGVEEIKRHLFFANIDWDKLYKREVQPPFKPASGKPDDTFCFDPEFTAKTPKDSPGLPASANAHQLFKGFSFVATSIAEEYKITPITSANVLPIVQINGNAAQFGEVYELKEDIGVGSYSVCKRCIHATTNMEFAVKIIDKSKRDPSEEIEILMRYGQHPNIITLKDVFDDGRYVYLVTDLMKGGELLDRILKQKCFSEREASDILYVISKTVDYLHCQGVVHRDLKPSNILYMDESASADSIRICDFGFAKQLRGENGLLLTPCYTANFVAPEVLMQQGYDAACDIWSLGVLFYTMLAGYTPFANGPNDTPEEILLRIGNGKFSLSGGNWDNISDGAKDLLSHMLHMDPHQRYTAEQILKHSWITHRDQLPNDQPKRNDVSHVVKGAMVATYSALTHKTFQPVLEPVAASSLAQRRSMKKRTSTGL
Test [6] deals with T3, Son of sevenless homolog 1 (Homo sapiens, UniProt Q07889).
T3 sequence (Q07889 whole entry): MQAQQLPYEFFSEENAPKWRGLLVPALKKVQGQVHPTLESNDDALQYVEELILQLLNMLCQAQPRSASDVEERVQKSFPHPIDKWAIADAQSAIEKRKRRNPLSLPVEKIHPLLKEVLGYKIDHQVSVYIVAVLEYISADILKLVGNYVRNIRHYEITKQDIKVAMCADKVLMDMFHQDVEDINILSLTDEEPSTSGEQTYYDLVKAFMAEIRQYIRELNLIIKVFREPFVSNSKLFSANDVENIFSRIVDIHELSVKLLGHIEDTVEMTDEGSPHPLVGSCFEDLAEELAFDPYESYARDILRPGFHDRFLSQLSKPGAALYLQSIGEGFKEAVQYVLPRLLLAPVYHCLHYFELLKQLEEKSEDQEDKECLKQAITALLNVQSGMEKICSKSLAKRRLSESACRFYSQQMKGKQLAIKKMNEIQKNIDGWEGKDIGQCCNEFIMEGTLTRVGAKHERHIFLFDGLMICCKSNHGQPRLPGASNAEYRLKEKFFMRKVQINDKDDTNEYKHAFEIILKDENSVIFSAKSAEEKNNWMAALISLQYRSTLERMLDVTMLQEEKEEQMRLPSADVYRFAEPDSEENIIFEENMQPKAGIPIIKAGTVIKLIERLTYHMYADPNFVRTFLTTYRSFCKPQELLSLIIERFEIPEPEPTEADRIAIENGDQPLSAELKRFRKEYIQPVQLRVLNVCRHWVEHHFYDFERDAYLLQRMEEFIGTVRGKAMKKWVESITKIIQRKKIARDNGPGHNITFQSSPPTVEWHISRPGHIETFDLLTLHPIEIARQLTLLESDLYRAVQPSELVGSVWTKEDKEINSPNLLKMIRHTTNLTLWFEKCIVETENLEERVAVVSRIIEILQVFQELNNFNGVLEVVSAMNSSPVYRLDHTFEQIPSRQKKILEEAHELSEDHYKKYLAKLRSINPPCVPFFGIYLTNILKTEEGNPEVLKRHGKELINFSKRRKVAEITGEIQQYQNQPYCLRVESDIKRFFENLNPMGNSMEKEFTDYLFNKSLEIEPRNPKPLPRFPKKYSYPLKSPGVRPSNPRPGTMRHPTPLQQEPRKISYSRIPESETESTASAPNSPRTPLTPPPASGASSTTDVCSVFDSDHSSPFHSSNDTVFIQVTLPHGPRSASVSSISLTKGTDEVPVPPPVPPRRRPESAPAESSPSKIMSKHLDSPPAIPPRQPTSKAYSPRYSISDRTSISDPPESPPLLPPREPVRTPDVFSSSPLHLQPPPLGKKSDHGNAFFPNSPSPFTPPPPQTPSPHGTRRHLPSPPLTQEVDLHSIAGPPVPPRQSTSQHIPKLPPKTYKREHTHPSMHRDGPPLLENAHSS
As to the kind of experiment: Inhibition of SOS1 in human MOLM-13 cells assessed as reduction in pERK level incubated for 60 mins by HTRF analysis. In kind it is cell-based.

From ChEMBL document CHEMBL5678818, “Discovery of potent SOS1 inhibitors that block RAS activation via disruption of the RAS-SOS1 interaction” (Proc Natl Acad Sci U S A, 2019) come the findings set out here.

Chain of Calcium/calmodulin-dependent protein kinase type 1D (Homo sapiens) (Q8IU85 whole entry, looked up): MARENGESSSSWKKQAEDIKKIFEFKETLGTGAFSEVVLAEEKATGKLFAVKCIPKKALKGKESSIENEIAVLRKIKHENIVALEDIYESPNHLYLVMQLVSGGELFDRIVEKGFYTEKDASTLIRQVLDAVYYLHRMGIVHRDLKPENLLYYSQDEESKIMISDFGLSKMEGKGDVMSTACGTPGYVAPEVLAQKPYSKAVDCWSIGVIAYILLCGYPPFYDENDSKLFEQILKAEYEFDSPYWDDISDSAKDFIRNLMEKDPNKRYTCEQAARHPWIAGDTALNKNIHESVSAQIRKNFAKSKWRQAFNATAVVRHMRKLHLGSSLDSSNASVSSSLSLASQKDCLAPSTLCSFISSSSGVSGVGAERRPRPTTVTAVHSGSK

For the molecule `COc1cc2ncnc(N[C@H](C)c3cccc4ccccc34)c2cc1OC`, the Activity in test [1] worked out at 88%; in test [2], 94%; in test [3] it was 75%; in test [4], 92%; in test [5] it was 86%.
`COc1cc2nc(C)nc(NC(C)c3ccc(-c4cnc5n4CCC5)s3)c2cc1OC` (stereo unspecified): in test [6], the IC50 was 450 nM.
